{"source": "PubChem BioAssay AID2060621", "about": "(Molecular Pharmacology Branch, DTP, NCI, 2025)", "tested_on": "324938-238-R-J1-PDC complex spheroids viability", "experiment": "Anticancer human tumor 324938-238-R-J1-PDC patient-derived bladder carcinoma cell line growth inhibition [CLK]", "settings": "for pIC50: curve of first compound; for viability, T/C: stronger effect = lower value", "summary_of_the_method": "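Patient-derived tumor cells grown as complex spheroids with HUVEC endothelial cells and mesenchymal stem cells, treated with drug combinations. Concentrations descend in half-log steps from near clinical Cmax, or from 10 microM if Cmax unknown.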", "note": "pIC50: −log10 of the molar value.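 Note: viability read after seven days of drug exposure.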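 Throughout, for viability, T/C: 100% = DMSO vehicle control wells.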"}
{"smiles": "COc1ccc([C@@H](O)c2cc(-c3ncnc4cc(N5CCOCC5)ccc34)c(F)cc2Cl)nn1", "note": "+ CNC(=O)c1ccc(Nc2nc(OC3CCCC3)c3c(-c4ccc5nc(C)oc5c4)c[nH]c3n2)c(OC)c1", "values": [{"measurement": "pIC50", "setting": "second compound 0.0316 µM", "value": 5.42}, {"measurement": "pIC50", "setting": "second compound 0.1 µM", "value": "> 7.50"}, {"measurement": "pIC50", "setting": "second compound 0.316 µM", "value": "> 7.50"}, {"measurement": "pIC50", "setting": "second compound 1 µM", "value": "> 7.50"}, {"measurement": "pIC50", "setting": "second compound 3.16 µM", "value": "> 7.50"}, {"measurement": "pIC50", "setting": "second compound 10 µM", "value": "> 7.50"}, {"measurement": "viability, T/C", "setting": "second compound 0.0316 µM, first compound 0.0316 µM", "value": 86.8, "unit": "%"}, {"measurement": "viability, T/C", "setting": "second compound 0.0316 µM, first compound 0.1 µM", "value": 76.4, "unit": "%"}, {"measurement": "viability, T/C", "setting": "second compound 0.0316 µM, first compound 0.316 µM", "value": 70.3, "unit": "%"}, {"measurement": "viability, T/C", "setting": "second compound 0.0316 µM, first compound 1 µM", "value": 63.5, "unit": "%"}, {"measurement": "viability, T/C", "setting": "second compound 0.0316 µM, first compound 3.16 µM", "value": 56.5, "unit": "%"}, {"measurement": "viability, T/C", "setting": "second compound 0.0316 µM, first compound 10 µM", "value": 35.9, "unit": "%"}, {"measurement": "viability, T/C", "setting": "second compound 0.1 µM, first compound 0.0316 µM", "value": 27.6, "unit": "%"}, {"measurement": "viability, T/C", "setting": "second compound 0.1 µM, first compound 0.1 µM", "value": 26.3, "unit": "%"}, {"measurement": "viability, T/C", "setting": "second compound 0.1 µM, first compound 0.316 µM", "value": 22.9, "unit": "%"}, {"measurement": "viability, T/C", "setting": "second compound 0.1 µM, first compound 1 µM", "value": 28, "unit": "%"}, {"measurement": "viability, T/C", "setting": "second compound 0.1 µM, first compound 3.16 µM", "value": 29, "unit": "%"}, {"measurement": "viability, T/C", "setting": "second compound 0.1 µM, first compound 10 µM", "value": 22.7, "unit": "%"}, {"measurement": "viability, T/C", "setting": "second compound 0.316 µM, first compound 0.0316 µM", "value": 18.5, "unit": "%"}, {"measurement": "viability, T/C", "setting": "second compound 0.316 µM, first compound 0.1 µM", "value": 20.5, "unit": "%"}, {"measurement": "viability, T/C", "setting": "second compound 0.316 µM, first compound 0.316 µM", "value": 17.9, "unit": "%"}, {"measurement": "viability, T/C", "setting": "second compound 0.316 µM, first compound 1 µM", "value": 16.5, "unit": "%"}, {"measurement": "viability, T/C", "setting": "second compound 0.316 µM, first compound 3.16 µM", "value": 14.6, "unit": "%"}, {"measurement": "viability, T/C", "setting": "second compound 0.316 µM, first compound 10 µM", "value": 16.1, "unit": "%"}, {"measurement": "viability, T/C", "setting": "second compound 1 µM, first compound 0.0316 µM", "value": 16, "unit": "%"}, {"measurement": "viability, T/C", "setting": "second compound 1 µM, first compound 0.1 µM", "value": 14.5, "unit": "%"}, {"measurement": "viability, T/C", "setting": "second compound 1 µM, first compound 0.316 µM", "value": 16, "unit": "%"}, {"measurement": "viability, T/C", "setting": "second compound 1 µM, first compound 1 µM", "value": 14.8, "unit": "%"}, {"measurement": "viability, T/C", "setting": "second compound 1 µM, first compound 3.16 µM", "value": 12.9, "unit": "%"}, {"measurement": "viability, T/C", "setting": "second compound 1 µM, first compound 10 µM", "value": 11.2, "unit": "%"}, {"measurement": "viability, T/C", "setting": "second compound 3.16 µM, first compound 0.0316 µM", "value": 18.1, "unit": "%"}, {"measurement": "viability, T/C", "setting": "second compound 3.16 µM, first compound 0.1 µM", "value": 14.2, "unit": "%"}, {"measurement": "viability, T/C", "setting": "second compound 3.16 µM, first compound 0.316 µM", "value": 16.2, "unit": "%"}, {"measurement": "viability, T/C", "setting": "second compound 3.16 µM, first compound 1 µM", "value": 14.7, "unit": "%"}, {"measurement": "viability, T/C", "setting": "second compound 3.16 µM, first compound 3.16 µM", "value": 14.9, "unit": "%"}, {"measurement": "viability, T/C", "setting": "second compound 3.16 µM, first compound 10 µM", "value": 9.35, "unit": "%"}, {"measurement": "viability, T/C", "setting": "second compound 10 µM, first compound 0.0316 µM", "value": 15.6, "unit": "%"}, {"measurement": "viability, T/C", "setting": "second compound 10 µM, first compound 0.1 µM", "value": 16.7, "unit": "%"}, {"measurement": "viability, T/C", "setting": "second compound 10 µM, first compound 0.316 µM", "value": 16.9, "unit": "%"}, {"measurement": "viability, T/C", "setting": "second compound 10 µM, first compound 1 µM", "value": 16.8, "unit": "%"}, {"measurement": "viability, T/C", "setting": "second compound 10 µM, first compound 3.16 µM", "value": 11.1, "unit": "%"}, {"measurement": "viability, T/C", "setting": "second compound 10 µM, first compound 10 µM", "value": 12.1, "unit": "%"}]}
